Measurements: patent publication US20080085917A1, “7-(2-(4-(3-TRIFLUOROMETHYL-PHENYL)-1,2,3,6-TETRAHYDROPYRID-1-YL)ETHYL)ISOQUINOLINE BESYLATE SALT, PREPARATION AND THERAPEUTIC USE THEREOF” (sanofi-aventis, priority 2005, published 2008)

Key:
Format in all cases: physicochemical
[1] = Chemical stability of salts exposed to heat and moisture, measured by HPLC; details: for Purity after 14 days at 80° C./80% RH: 14 days at 80° C. and 80% relative humidity; for Initial purity: before exposure (baseline of stability study)
Protocol: The chemical stability of the compound of formula (I) in the dihydrochloride, dihydrogensulfate, fumarate, dibenzenesulfonate and monobenzenesulfonate forms was studied.
Each of the five above salts is exposed to heat, to moisture and to light under the conditions below: • 14 days at a temperature of 80° C., • 14 days at a temperature of 80° C. and a relative humidity (RH) level of 80%, • exposure to light of 400 W.Hrs.m^−2.

[2] = Water sorption isotherms (DVS); details: 25° C.
Protocol: The DVS tests are carried out using a DVS-1 system. From 20 to 32 mg of product are used per analysis and the temperature is maintained at 25° C. plus or minus 0.2° C. Nitrogen is used as carrier gas at a flow rate of 100 ml/min in the sample chamber.

[3] = Water content by thermogravimetric analysis (TGA); details: for Loss in weight / Nature of the solvent: TGA; for Loss in weight: from 25° C., 10° C./min, nitrogen purge; for Nature of the solvent: solvent lost; for Hydration state: from TGA curve
Protocol: The water content of the five above salts was studied by thermogravimetric analysis (TGA).
The TGA tests are carried out in a TA8000 device equipped with a TGA850 module. The temperature calibrations are carried out conventionally using the melting of indium.
The experimental parameters employed were:
Final temperature: 250° C. for the dihydrochloride, 300° C. for the fumarate, 200° C. or 250° C. for the dihydrogensulfate, 250° C. or 300° C. for the dibesylate and the besylate.
The system is purged using nitrogen at a flow rate of 70 ml/min.
The pans used were 70 μl silica pans.

| Molecule | Purity after 14 days at 80° C. [1] [%] | Purity after 14 days at 80° C./80% RH [1] [%] | Initial purity [1] [%] | Hygroscopicity (sorption isotherms), in words [2] | Hysteresis in sorption/desorption [2] | Loss in weight [3] [% weight/weight] | Nature of the solvent [3] | Water acquired during the sorption cycle ([2]; between 30 and 80% relative humidity) [% weight/weight] | Hydration state [3] |
| --- | --- | --- | --- | --- | --- | --- | --- | --- | --- |
| FC(F)(F)c1cccc(C2=CCN(CCc3ccc4ccncc4c3)CC2)c1.O=S(=O)(O)c1ccccc1.O=S(=O)(O)c1ccccc1 [Dibesylate] | 97.5 | 96.2 | 97.5 | significant acquisition of water | hystereses observed during the desorption | 0.72 | Water | – | – |
| Cl.Cl.FC(F)(F)c1cccc(C2=CCN(CCc3ccc4ccncc4c3)CC2)c1 [Dihydrochloride] | 95.6 | 92.9 | 97.0 | – | weak hysteresis | 11.0 | Water | 1.9 | three water molecules per mole of anhydrous salt |
| FC(F)(F)c1cccc(C2=CCN(CCc3ccc4ccncc4c3)CC2)c1.O=S(=O)(O)O.O=S(=O)(O)O [Dihydrogensulfate] | 91.9 | 88.5 | 93.3 | significant acquisition of water | hystereses observed during the desorption | 2.06 | Solvent + water | – | – |
| Fumarate | 96.7 | 32.4 | 97.9 | weakly hygroscopic | – | 0.45 | Solvent + water | – | – |
| FC(F)(F)c1cccc(C2=CCN(CCc3ccc4ccncc4c3)CC2)c1.O=S(=O)(O)c1ccccc1 [Besylate, 7-(2-(4-(3-(trifluoromethyl)phenyl)-1,2,3,6-tetrahydropyrid-1-yl)ethyl)isoquinoline besylate] | 97.9 | 96.5 | 98.2 | least hygroscopic of all the salts tested | No hysteresis | 0.11 | Water | – | not hydrated |
